In this assay the test system is SOD1^G93A mice. Description: Mouse survival and efficacy evaluation (Exp 1: onset, survival, behavioral tests). The assay is classed as in vivo. The source says: Hb9::GFP and ISL1::GFP mice were described previously^107,108. All experiments used protocols approved by the Animal Care and Ethics Committees of the Gwangju Institute of Science and Technology (GIST) in accordance with the National Institutes of Health Guide for the Care and Use of Laboratory Animals. For efficacy assessment of the caffeic acid, B6.Cg-Tg(SOD1^G93A)1Gur/J mice (Jackson Laboratory, Bar Harbor, ME) was used after in vitro fertilization (Macrogen, Seoul, Korea) and all the protocol was approved by the Institutional Animal Care and Use Committees of Dong-A University.
Caffeic acid (30) mg/kg) dissolved in PBS containing 10% ethanol or vehicle (PBS containing 10% ethanol) were orally administered 5 days/week from 60 days to 120 days of age. Three independent experiments were performed to evaluate the efficacy of caffeic acid. A total of 24 mice in each group (female=12, male=12) were used for evaluation of survival and behavioral assessments (Exp 1), and the same number of mice were used for histologic analyses (Exps 2 and 3). In the Exp 1, mice were monitored for neurological disease progression according to guidelines for preclinical animal research in ALS/MND (Ludolph AC et al, 2010). The neurological score was followed as Score 0.5 as disease onset (first signs of tremor and hind-limb splay defects) and the end stage (Score 4) was determined as loss of righting reflex within 30s. Neurological scoring was monitored daily and mice at the end stage were euthanized. Kaplan-Meier curves was used to analyze age of onset and survival using Graphpad Prism7 (GraphPad Software, San Diego, CA). Motor coordination and muscle integrity were assessed weekly using a Rotarod apparatus and grip strength device (Panlab Harvard Apparatus, Barcelona, Spain). Tissue analyses were performed in the Exp 2 (n=14 for each group) and Exp 3 (n=10 for each group). They were anesthetized with […] isofluran at 16 wks (Exp 2) and 20 wks (Exp 3) of age then perfused with 4% paraformaldehyde in PBS. L4-L5 segments of spinal cord were serially cut with the cryostat into 20 μm sections then stained with 0.1% (w/v) cresyl violet stain solution. Motor neurons with larger than 25 μm of dimeter in Lamina IX of the ventral horn were counted using Image J software (National Institutes of Health, Bethesda, USA) program, and 10) sections per sample (n=10 for each group) were averaged. Activated astrocytes and microglia in the spinal cord were detected using anti-GFAP Ab and rabbit anti-Iba1 Ab (Cell Signaling Technology, Beverly, MA) for 10 sections per sample (n=10 for each group). The integrated density of fraction area in the ventral horn were measured using Image J software for quantification of activated astrocytes and microglia. Neuromuscular junction was analyzed in gastrocnemius muscle (30 μm) with anti-a-bungarotoxin Ab to label AChR and anti-neurofilament H/synapsin Ab (Cell Signaling Technology) to label axon terminals. The innervated pretzel structures merged with two fluorescence were counted.

As for `O=C(O)/C=C/c1ccc(O)c(O)c1` [caffeic acid, 3,4-dihydroxy benenearcrylic acid], the grip strength result (30 mg/kg orally) is given as “attenuated disease progression”. For the setting “30 mg/kg orally 5 days/week from 60 to 120 days of age, control 109.8±7.7 days”, the “disease onset (tremor and hind-limb splay defects)” value amounted to 118.8 ± 4.3 days. In addition, the “survival (loss of righting reflex within 30s)” value (30 mg/kg orally 5 days/week from 60 to 120 days of age, control 162.8±12.3 days) was found to be 171.0 ± 11.4 days. Also, for the setting “30 mg/kg orally, monitored weekly”, the body weight entry is reported as “attenuated disease progression”. Also, the rotarod performance result (30 mg/kg orally, reduction begins from 15 weeks of age) is listed as “significant slowdown of the reduction”.
